Reference: patent US20230146455A1, “TREATMENT OF INFLAMMATORY DISEASES WITH PEPTIDES AND PHARMACEUTICAL COMPOSITIONS” (Yuyu Pharma, Inc., priority 2020, published 2023)
Values joined by “and” are separate entries in the source; they are usually repeats but may differ in a detail not shown here. Equal values may be shown once. Where a SMILES comes first, the peptide text is derived from it. [ ]: non-standard residue; d: D form. Hyp = O=C(O)[C@@H]1C[C@@H](O)CN1

Assays:
CCL3/MIP-1 alpha = test: Example 9 Luminex, LPS hPBMCs: CCL3/MIP-1 alpha; assay type: cell-based, human
Procedure: (§1) Treatment Human PBMCs were pretreated with YY-101, YDE-011 and YDE-043 or reference compound; Xiidra® at various concentration (ranging from 1 nM to 100 uM) for 2 h before stimulation. An equal volume of 0.5% DMSO was used as a vehicle control. Then, the cells were treated with LPS at 5 ug/ml. The supernatants from treated cells were harvested at 24 h and placed in a 96 well for Luminex cytokine & chemokine profiling using a Luminex 200 multiplex assay (Luminex; R&D system, USA).
(§2) The main study arm with triplicate wells per group in a 24-well plate: • 1. Blank • 2. PBMC: 0.5% DMSO • 3. PBMC+LPS (5 ug/ml) • 4. PBMC+YY-101 100 uM • 5. PBMC+YY-101 10 uM • 6. PBMC+YY-101 1 uM • 7. PBMC+YY-101 0.1 uM • 8. PBMC+YY-101 0.01 uM • 9. PBMC+LPS (5 ug/ml)+Xiidra®100 uM • 10. PBMC+LPS (5 ug/ml)+Xiidra® 10 uM • 11. PBMC+LPS (5 ug/ml)+Xiidra® 1 uM • 12. PBMC+LPS (5 ug/ml)+Xiidra®0.1 uM • 13. PBMC+LPS (5 ug/ml)+Xiidra®0.01 uM • 14. PBMC+LPS (5 ug/ml)+Xiidra®0.001 uM • 15. PBMC+LPS (5 ug/ml)+YY-101 100 uM • 16. PBMC+LPS (5 ug/ml)+YY-101 10 uM • 17. PBMC+LPS (5 ug/ml)+YY-101 1 uM • 18. PBMC+LPS (5 ug/ml)+YY-101 0.1 uM • 19. PBMC+LPS (5 ug/ml)+YY-101 0.01 uM • 20. PBMC+LPS (5 ug/ml)+YY-101 0.001 uM • 21. PBMC+LPS (5 ug/ml)+YDE-011 100 uM • 22. PBMC+LPS (5 ug/ml)+YDE-011 10 uM • 23. PBMC+LPS (5 ug/ml)+YDE-011 1 uM • 24. PBMC+LPS (5 ug/ml)+YDE-011 0.1 uM • 25. PBMC+LPS (5 ug/ml)+YDE-011 0.01 uM • 26. PBMC+LPS (5 ug/ml)+YDE-011 0.001 uM • 27. PBMC+LPS (5 ug/ml)+YDE-043 100 uM • 28. PBMC+LPS (5 ug/ml)+YDE-043 10 uM • 29. PBMC+LPS (5 ug/ml)+YDE-043 1 uM • 30. PBMC+LPS (5 ug/ml)+YDE-043 0.1 uM • 31. PBMC+LPS (5 ug/ml)+YDE-043 0.01 uM • 32. PBMC+LPS (5 ug/ml)+YDE-043 0.001 uM
(§3) Multiplex assay was used to measure 30 cytokines and chemokines. The 1:2, 1:10 and 1:200 diluted cell supernatant and serial dilution of the standard were dispensed into a 96 well plate at 50 ul/well. Then, the pre-mixed cocktail of antibody-coated magnetic beads was dispensed at 50 ul/well and incubated at room temperature for 2 h in a horizontal orbital microplate shaker at 800±500 rpm. The beads were washed using a magnetic device to prevent loss. The biotin-antibody was dispensed in 50 ul of each well and incubated at room temperature for 1 h in a shaker at 800±500 rpm. After washing, streptavidin-PE was added at 50 ul/well and incubated at room temperature for 30 min in a shaker under the same conditions. Finally, after washing, wash buffer (100 ul/well) was added to the plate and incubated in a shaker for 2 min. The Luminex™ 200 setting were set according to the manufacturer's protocol. The data was calculated with a standard five-parameter logistic nonlinear regression analysis of the data (xPonent software 4.2, USA). The levels of cytokine/chemokine are normalized to the live cell counts (1×10^5 cells/mL) and presented as concentrations per mL (pg/mL or ng/mL).

VEGF-A = test: Example 9 Luminex, LPS hPBMCs: VEGF-A; assay type: cell-based, human; settings: Bead VEGF-A; for Concentration: dilution 2.0
Procedure: as §1, §2, §3

[1] = PBMC + LPS(5 ug/ml) + test article 0.001 uM, Mean
[2] = PBMC + LPS(5 ug/ml) + test article 0.001 uM, individual replicates
[3] = PBMC + LPS(5 ug/ml) + test article 0.01 uM, Mean
[4] = PBMC + LPS(5 ug/ml) + test article 0.01 uM, individual replicates
[5] = PBMC + LPS(5 ug/ml) + test article 0.1 uM, Mean
[6] = PBMC + LPS(5 ug/ml) + test article 0.1 uM, individual replicates
[7] = PBMC + LPS(5 ug/ml) + test article 1 uM, Mean
[8] = PBMC + LPS(5 ug/ml) + test article 1 uM, individual replicates
[9] = PBMC + LPS(5 ug/ml) + test article 10 uM, Mean
[10] = PBMC + LPS(5 ug/ml) + test article 10 uM, individual replicates
[11] = PBMC + LPS(5 ug/ml) + test article 100 uM, Mean
[12] = PBMC + LPS(5 ug/ml) + test article 100 uM, individual replicates
[13] = PBMC + LPS(5 ug/ml) + test article 0.001 uM, single replicates
[14] = PBMC + LPS(5 ug/ml) + test article 0.01 uM, single replicates
[15] = PBMC + LPS(5 ug/ml) + test article 0.1 uM, single replicates
[16] = PBMC + LPS(5 ug/ml) + test article 1 uM, single replicates
[17] = PBMC + LPS(5 ug/ml) + test article 10 uM, single replicates
[18] = PBMC + LPS(5 ug/ml) + test article 100 uM, single replicates

SMILES: CC(C)C[C@H](NC(=O)[C@H](CCC(N)=O)NC(=O)CNC(=O)[C@@H]1C[C@@H](O)CN1)C(=O)NCC(=O)O [YDE-043] (H-[Hyp]GQLG-OH; N-terminus and C-terminus assumed)
- Concentration (CCL3/MIP-1 alpha; [1]): 7935.0 pg/mL
- conc/live cell (CCL3/MIP-1 alpha; [1]): 1611.4 pg/10^5
- Concentration (CCL3/MIP-1 alpha; [2]): 7637.9 pg/mL and 8204.6 pg/mL and 7962.5 pg/mL
- conc/live cell (CCL3/MIP-1 alpha; [2]): 1735.9 pg/10^5 and 1367.4 pg/10^5 and 1731.0 pg/10^5
- Concentration (CCL3/MIP-1 alpha; [3]): 7883.4 pg/mL
- conc/live cell (CCL3/MIP-1 alpha; [3]): 1505.4 pg/10^5
- Concentration (CCL3/MIP-1 alpha; [4]): 7796.2 pg/mL and 7985.9 pg/mL and 7868.0 pg/mL
- conc/live cell (CCL3/MIP-1 alpha; [4]): 1732.5 pg/10^5 and 1210.0 pg/10^5 and 1573.6 pg/10^5
- Concentration (CCL3/MIP-1 alpha; [5]): 7645.0 pg/mL
- conc/live cell (CCL3/MIP-1 alpha; [5]): 1418.9 pg/10^5
- Concentration (CCL3/MIP-1 alpha; [6]): 7513.4 pg/mL and 7625.5 pg/mL and 7796.2 pg/mL
- conc/live cell (CCL3/MIP-1 alpha; [6]): 1502.7 pg/10^5 and 1361.7 pg/10^5 and 1392.2 pg/10^5
- Concentration (CCL3/MIP-1 alpha; [7]): 7636.6 pg/mL
- conc/live cell (CCL3/MIP-1 alpha; [7]): 1442.9 pg/10^5
- Concentration (CCL3/MIP-1 alpha; [8]): 7962.5 pg/mL and 6891.7 pg/mL and 8055.7 pg/mL
- conc/live cell (CCL3/MIP-1 alpha; [8]): 1372.8 pg/10^5 and 1435.8 pg/10^5 and 1520.0 pg/10^5
- Concentration (CCL3/MIP-1 alpha; [9]): 7606.3 pg/mL
- conc/live cell (CCL3/MIP-1 alpha; [9]): 1409.0 pg/10^5
- Concentration (CCL3/MIP-1 alpha; [10]): 7500.8 pg/mL and 7450.2 pg/mL and 7868.0 pg/mL
- conc/live cell (CCL3/MIP-1 alpha; [10]): 1442.5 pg/10^5 and 1379.7 pg/10^5 and 1405.0 pg/10^5
- Concentration (CCL3/MIP-1 alpha; [11]): 7769.2 pg/mL
- conc/live cell (CCL3/MIP-1 alpha; [11]): 1234.0 pg/10^5
- Concentration (CCL3/MIP-1 alpha; [12]): 7962.5 pg/mL and 7575.9 pg/mL
- conc/live cell (CCL3/MIP-1 alpha; [12]): 1284.3 pg/10^5 and 1183.7 pg/10^5
- conc/live cell (VEGF-A; [1]): 0.7 pg/10^5
- Concentration (VEGF-A; [1]): 3.6 pg/mL
- Concentration (VEGF-A; [13]): 3.6 pg/mL
- conc/live cell (VEGF-A; [13]): 0.8 pg/10^5 (2×) and 0.6 pg/10^5
- conc/live cell (VEGF-A; [3]): 0.1 pg/10^5
- Concentration (VEGF-A; [3]): 0.6 pg/mL
- Concentration (VEGF-A; [14]): 0.6 pg/mL
- conc/live cell (VEGF-A; [14]): 0.1 pg/10^5
- conc/live cell (VEGF-A; [5]): 0.1 pg/10^5
- Concentration (VEGF-A; [5]): 0.6 pg/mL
- Concentration (VEGF-A; [15]): 0.6 pg/mL
- conc/live cell (VEGF-A; [15]): 0.1 pg/10^5
- conc/live cell (VEGF-A; [7]): 0.8 pg/10^5
- Concentration (VEGF-A; [7]): 4.4 pg/mL
- Concentration (VEGF-A; [16]): 6.1 pg/ml and 3.6 pg/ml (2×)
- conc/live cell (VEGF-A; [16]): 1.1 pg/10^5 and 0.7 pg/10^5 (2×)
- conc/live cell (VEGF-A; [9]): 0.7 pg/10^5
- Concentration (VEGF-A; [9]): 5.5 pg/mL
- Concentration (VEGF-A; [17]): 6.1 pg/mL and 4.9 pg/mL
- conc/live cell (VEGF-A; [17]): 0.0 pg/10^5 and 1.1 pg/10^5 and 0.9 pg/10^5
- conc/live cell (VEGF-A; [11]): 0.4 pg/10^5
- Concentration (VEGF-A; [11]): 4.9 pg/mL
- Concentration (VEGF-A; [18]): 4.9 pg/mL
- conc/live cell (VEGF-A; [18]): 0.8 pg/10^5 and 0.0 pg/10^5
